Test results taken from patent publication US20070254853A1, “Compositions and Methods for Promotion of Wound Healing” (BOARD OF REGENTS, THE UNIVERSITY OF TEXAS SYSTEM, priority 2006, published 2007).

Assays:
[1] = system: 4 mm punch wound on the dorsal surface; test: Topical applications for wound healing in mice (4 mm punch wound, three dietary groups); type: in vivo, Balb/c mice; conditions: 100 μM topical, in place of uracil; with or without CCM; four times over two weeks
From the text: Balb/c mice were divided into three dietary groups (F=normal mouse chow; NF=nucleotide free mouse chow; and NFR=nucleotide free mouse chow supplemented with yeast RNA). Each group was fed before initiation of wounds. After 4 weeks of feeding, a 4 mm punch wound was created on the dorsal surface of each mouse, using a 4 mm biopsy punch. The wounds were coated with four different topical agents: (1) saline; (2) uracil ([…]); (3) saline+CCM; and (4) Uracil+CCM (CCM=crosslinked collagen mesh). CCM (“Collagen Permeable Membrane”) from Accurate Chemical & Scientific Corporation, Catalog No. YIC 152299. Four mm size circles were soaked with appropriate nucleotide or saline solution (4 mm punch wounds) and used to dress the wounds.
Twelve groups were formed from these combinations (n=3). Mice were continued on their respective diets. Wounds were observed visually and photographed at four different times during the period of two weeks. These studies were repeated using a 100 μM concentration of inosine in place of uracil as the topical agent.

[2] = system: 8 mm full thickness dorsal skin punch wound; test: Sirolimus dose response on healing of a full thickness skin punch wound; type: in vivo, Balb/c mice
Protocol: Sirolimus is an effective immunosuppressant that has been associated with delayed wound healing. On a full thickness skin murine model of immunosuppression and decreased wound healing, the Sirolimus dose that delayed wound healing was first determined.
Methods: For 2 weeks Balb/c mice were gavage-fed saline, 4 mg/kg, 8 mg/kg or 12 mg/kg Sirolimus (10 per group). After drug loading, an 8 mm in diameter full thickness dorsal skin punch wound was made in each mouse. Every second day digital pictures of the wound were taken and analyzed. After determining the effective Sirolimus dose that causes decreased wound healing and immunosuppression, 40 Balb/c mice were gavaged with 8 mg/kg of Sirolimus every other day. After establishing the punch wounds, the mono and dinucleotides were applied topically daily. The topical treatment was applied using the following formulations (10 mice per group): a mixture of mono and dinucleotides derived from RNA in 0.025%, 0.25% and 2.5% concentrations and one group with KY jelly as control. Every second day a digital picture was taken and wound size measured. P2Y2 receptor expression was qualitatively assessed using immunohistology and receptor specific antibodies. T-test was used to compare the groups.

| SMILES | wound healing, wounds observed visually and photographed [1] | effect on wound healing ([2]; 4 mg/kg gavage for 2 weeks) | effect on wound healing ([2]; 8 mg/kg gavage for 2 weeks, day 4 and after) | effect on wound healing ([2]; 12 mg/kg gavage for 2 weeks, day 4 and after) |
| --- | --- | --- | --- | --- |
| OC[C@H]1O[C@@H](n2cnc3c(O)ncnc32)[C@H](O)[C@@H]1O [inosine] | no significant differences from that which was seen with the uracil | – | – | – |
| CO[C@H]1C[C@@H]2CC[C@@H](C)[C@@](O)(O2)C(=O)C(=O)N2CCCC[C@H]2C(=O)O[C@H]([C@H](C)C[C@@H]2CC[C@@H](O)[C@H](OC)C2)CC(=O)[C@H](C)/C=C(\C)[C@@H](O)[C@@H](OC)C(=O)[C@H](C)C[C@H](C)/C=C/C=C/C=C/1C [Sirolimus] | – | no effect on wound healing | delayed wound healing in a significant manner | delayed wound healing in a significant manner |
